Where “and” joins values, the source holds several entries; their conditions need not be identical. Equal values may be shown once.
Biological target: T1, WWP2 (GST-tagged WWP2-FL) (Homo sapiens, UniProt O00308)
T1 construct: Full- length WWP2 (WWP2-FL); made in house; host or cells: E. coli BL21-CodonPlus RP (plasmid pGEX2T-WWP2-FL, Dr Andrew Chantry's Lab)
Assay: in vitro autoubiquitination assay (single shot and dose dependency), WWP2
Format: biochemical
Conditions: single shot, compound at 1 mM (1% DMSO), standardized to 0 and 100% controls
Description: A single shot in vitro autoubiquitination assay was performed for I3C, DIM and each of the derivatives against WWP1 and WWP2 using a compound concentration of 1 mM (1% DMSO) (SI Figure S3). […] These active compounds were then subjected to a detailed dose dependency analysis leading to IC50 values. This strategy has previously been employed to screen other WWP1/WWP2 small molecule inhibitors as well as used to assess I3C inhibition toward NEDD4-1.[29],[32] In this way, compounds displaying a relative activity (RA) of less than 50% in the single shot assay were further screened for dose-dependency using a logarithmic concentration range from 10 nM to 1 mM (1% DMSO) (SI Figure S4). […] These were confirmed by counter assays to remove compounds possibly interacting with other enzymes in the assay or interfering with the assay directly (SI Table S1).
Cell lysate containing His-tagged WWP1-L34H or GST-tagged WWP2-FL proteins were incubated on either 96-well Clear Pierce glutathione or nickel-coated plates for 1 h. Reaction mixtures of either 3 ng/well GST-Uba1 and 15 ng/well UbcH7 or 10 ng/well His-Uba1 and 150 ng/well His-UbcH7 were incubated together in 25 mM Tris pH 8.0, 100 mM NaCl, 4 mM MgCl2 containing 60 ng/well FLAG-ubiquitin and 1.25 mM ATP for 40 min. A prior 1% BSA plate blocking step is required for nickel-coated plates. After plate washing, 2 μL of the compound was added at the desired concentration (1% DMSO) followed by 18 μL of the reaction mixture. This was then incubated for 2 h with 0 and 100% controls before 100 μL of anti-FLAG M2-Peroxidase HRP (1:10,000 PBST) was added to each well and incubated for 1 h. Finally, 100 μL of 1 × TMB substrate solution (Invitrogen) was added to each well and incubated for up to 10 min until sufficient blue color change was observed. To stop the reaction, 100 μL of 1 M HCl was added. For the counter assay, 3 ng/well GST-Uba1 and 200 ng/well UbcH7 were incubated with the other reaction mixture components for 1 h before incubating onto plates for a further 1 h. All other steps were followed. The plates were washed three times with PBST (and 15 mM Imidazole) between each step. Quantification was measured by absorbance read at 450 nm. All assay optimizations were as previously reported.[32] IC50 nonlinear regression curves were calculated in GraphPad v10.2 (Prism). […]
Auto-ubiquitination Assay
Cell lysate containing His-tagged WWP1-L34H or GST-tagged WWP2-FL proteins were incubated on either 96-well Clear Pierce glutathione 2 or nickel-coated plates for 1 hour. Reaction mixtures of either 3 ng/well GST-Uba1 and 15 ng/well UbcH7 or 10 ng/well His-Uba1 and 150 ng/well His-UbcH7 were incubated together in 25 mM Tris pH 8.0, 100 mM NaCl, 4 mM MgCl2 containing 60 ng/well FLAG-ubiquitin and 1.25 mM ATP for 40 minutes. A prior 1 % BSA plate blocking step is required for nickel-coated plates. After plate washing, 2 μL of the compound was added at the desired concentration (1 % DMSO) followed by 18 μL of the reaction mixture. This was then incubated for 2 hours with 0% and 100% controls before 100 μL of anti-FLAG M2-Peroxidase HRP (1: 10,000 PBST) was added to each well and incubated for 1 hour.
Finally, 100 μL of 1 × TMB substrate solution (Invitrogen) was added to each well and […]
incubated for up to 10 minutes until sufficient blue colour change was observed. To stop the reaction, 100 μL of 1 M HCl was added. For the counter assay, 3 ng/well GST-Uba1 and 200 ng/well UbcH7 were incubated with the other reaction mixture components for 1 hour before incubating onto plates for a further 1 hour. All other steps were followed.
The plates were washed three times with PBST (and 15 mM Imidazole) between each step. Quantification was measured by absorbance read at 450 nm. All assay optimisations have been previously reported by Watt and colleagues3.
Relative activity (RA) was determined by comparing the autoubiquitination of the WWP ligases in the presence of each compound, i.e TMB absorbance (450 nm), to the […]

T1 sequence (O00308 whole entry): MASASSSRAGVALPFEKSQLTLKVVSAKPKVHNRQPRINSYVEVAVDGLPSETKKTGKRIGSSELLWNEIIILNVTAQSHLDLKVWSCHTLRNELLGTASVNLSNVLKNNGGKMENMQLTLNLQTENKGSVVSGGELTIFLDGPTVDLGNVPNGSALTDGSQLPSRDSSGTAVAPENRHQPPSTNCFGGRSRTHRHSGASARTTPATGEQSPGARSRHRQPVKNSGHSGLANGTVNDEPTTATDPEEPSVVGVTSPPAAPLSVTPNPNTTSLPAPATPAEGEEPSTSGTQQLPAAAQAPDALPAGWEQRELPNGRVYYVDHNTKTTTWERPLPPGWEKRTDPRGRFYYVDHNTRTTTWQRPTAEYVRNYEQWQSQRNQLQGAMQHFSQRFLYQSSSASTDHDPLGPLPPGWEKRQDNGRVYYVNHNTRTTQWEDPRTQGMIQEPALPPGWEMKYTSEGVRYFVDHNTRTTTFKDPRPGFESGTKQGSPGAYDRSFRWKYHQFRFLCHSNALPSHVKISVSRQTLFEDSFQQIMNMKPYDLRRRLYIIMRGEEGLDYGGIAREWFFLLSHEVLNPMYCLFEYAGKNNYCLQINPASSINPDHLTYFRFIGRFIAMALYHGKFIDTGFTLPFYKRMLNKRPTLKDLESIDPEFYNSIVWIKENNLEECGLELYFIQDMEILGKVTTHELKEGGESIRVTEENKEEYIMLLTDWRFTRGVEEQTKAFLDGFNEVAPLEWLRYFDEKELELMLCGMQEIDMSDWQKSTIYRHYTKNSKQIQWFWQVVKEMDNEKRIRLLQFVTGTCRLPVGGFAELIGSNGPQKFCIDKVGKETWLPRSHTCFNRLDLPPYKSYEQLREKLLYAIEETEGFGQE

Compound: OCc1c[nH]c2ccccc12 [Compound I3C, Indole-3-carbinol, reference compound]
- WWP2 RA (%) relative activity: 88.0 ± 7.5% and 88.0%

Reference: article PMC11840788, “3,3′-Diindolylmethane (DIM): A Molecular Scaffold for Inhibition of WWP1 and WWP2, Members of the NEDD4 Family HECT E3 Ligases” (ACS Omega, 2025)
